# Results: patent publication US8017786B2, “Substituted β-phenyl-α-hydroxy-propanoic acid, synthesis method and use thereof” (Northwest University, priority 2006, dated 2011)
# Where a name gives a salt, the structure may show the parent alone.
# Tests used:
# Assay type in all cases: in vivo, rat
# [1] = test system: creatine kinase isoenzyme (CK-MB); test: Serum CK-MB activity in rats with myocardial ischemia; details: 10 mg/kg intragastric; serum, 24 h after ligation
# Protocol: (§1) At 0.5 h after the rats of these groups were administered intragastrically, the standard II lead electrocardiogram (before modeling) was recorded, and the height of ST-T segment was measured. The rats of sham operation group were then subjected to coronary artery braid without ligation, and the rats of other groups were subjected to coronary artery ligation in accordance with the following method to establish cute myocardial ischemia models. The rats were subjected to etherization, fixed at supine position, and their normal electrocardiograms (before modeling) were recorded. The skin of left thorax was incised under aseptic conditions, the 4th intercostal muscles were isolated in blunt way, the heart was extruded by light pressure to the right thorax, the left anterior descending coronary artery was ligated at a position 2˜3 mm departing from the left coronary artery origin and between the pulmonary conus and the left auricle of heart, then the heart was sent back to thorax cavity immediately and sutured the incision. Penicillin was smeared topically for the prevention of infections. After operation, the electrocardiogram of postischemia was recorded immediately (at 0 min after modeling), and the height of ST-T segment was measured.
# malondialdehyde (MDA) = test: Serum MDA content in rats with myocardial ischemia; details: 10 mg/kg intragastric; serum, 24 h after ligation
# Protocol: as §1
# [2] = test system: rats with acute myocardial ischemia; test: Area of myocardial infarction in rats with acute myocardial ischemia (coronary artery ligation); details: 10 mg/kg intragastric; 24 h after coronary artery ligation
# Protocol: as §1
# [3] = test system: lactate dehydrogenase (LDH); test: Serum LDH activity in rats with myocardial ischemia; details: 10 mg/kg intragastric; serum, 24 h after ligation
# Protocol: as §1
# [4] = test system: rats with acute myocardial ischemia; test: ST-T segment of ECG in rats with myocardial ischemia; details: 10 mg/kg intragastric
# Protocol: as §1
# creatine kinase (CK) = test: Serum CK activity in rats with myocardial ischemia; details: 10 mg/kg intragastric; serum, 24 h after ligation
# Protocol: as §1
# anesthetized rats = test: Blood pressure and left ventricular function of anesthetized rats; details: for change-rate of left intraventricular pressure MAX / change-rate of left intraventricular pressure, -MAX / contractive pressure / diastolic pressure / heart rate / left intraventricular pressure / mean arterial pressure: 11.4 mg/kg duodenal
# Protocol: All data were input into PowerLab/8Sp data acquisition and processing system via RM-6000 multi-channel polygraph, and recorded, analyzed and processed by PowerLab/8Sp.
# The abdomen was opened 1.5 cm below xiphoid bone to isolate duodenum, a small incision was formed on the duodenum away from blood vessels by ophthalmic scissors, a catheter was inserted and the incision was fixed by suture for administration. After the end of operation and a further waiting period of 30 min, normal data were recorded once the indexes to be monitored were stable.
# Test drugs were duodenally administered via the catheter, and the indexes were monitored 5, 15, 30, 60, 90 and 120 min after the administration. The change ratios of the indexes were calculated in accordance with the following formula, and were used for statistic analysis among groups.
# [5] = test system: superoxide dismutase (SOD); test: Serum SOD activity in rats with myocardial ischemia; details: 10 mg/kg intragastric; serum, 24 h after ligation
# Protocol: as §1
compound,measurement,setting,value
"COc1ccc(CCN(C)CCCC(C#N)(c2ccc(OC)c(OC)c2)C(C)C)cc1OC (stereo not drawn) [Verapamil, verapamil hydrochloride, reference compound]",CK-MB,[1],776.6 ± 127.6 U/L
same,MDA,malondialdehyde (MDA),11.86 ± 5.93 nmol/mL
same,Infarct region weight,[2],0.18 ± 0.04 g
same,Non-infarct region weight,[2],0.46 ± 0.08 g
same,"Percentage (infarct cardiac muscles of whole ventricle, by weight)",[2],27.60 ± 5.03 %
same,Ventricle weight,[2],0.65 ± 0.09 g
same,LDH,[3],1160.8 ± 145.0 U/L
same,Elevation of ST-T segment,[4]; 0 min after modeling,0.23 ± 0.12 mV
same,Elevation of ST-T segment,[4]; 24 h after modeling,0.18 ± 0.04 mV
same,"Elevation of ST-T segment, Change rate",[4]; 24 h after modeling,19.17 ± 20.94 %
same,Elevation of ST-T segment,[4]; before modeling,0.23 ± 0.04 mV
same,CK,creatine kinase (CK),752.2 ± 102.8 U/L
same,change-rate of left intraventricular pressure MAX,anesthetized rats; 5 min after administration,4857.7 ± 1002.4 mmHg/s
same,"change-rate of left intraventricular pressure, -MAX",anesthetized rats; 5 min after administration,−3812.9 ± 779.3 mm/Hg/s
same,contractive pressure,anesthetized rats; 5 min after administration,115.30 ± 19.35 mmHg
same,diastolic pressure,anesthetized rats; 5 min after administration,59.69 ± 12.55 mmHg
same,heart rate,anesthetized rats; 5 min after administration,345.03 ± 33.81 beat/min
same,left intraventricular pressure,anesthetized rats; 5 min after administration,128.71 ± 14.20 mmHg
same,mean arterial pressure,anesthetized rats; 5 min after administration,78.22 ± 14.31 mmHg
same,change-rate of left intraventricular pressure MAX,anesthetized rats; 15 min after administration,4284.9 ± 793.2 mmHg/s
same,"change-rate of left intraventricular pressure, -MAX",anesthetized rats; 15 min after administration,−3548.9 ± 707.7 mm/Hg/s
same,contractive pressure,anesthetized rats; 15 min after administration,98.48 ± 16.13 mmHg
same,diastolic pressure,anesthetized rats; 15 min after administration,50.08 ± 9.88 mmHg
same,heart rate,anesthetized rats; 15 min after administration,324.96 ± 36.20 beat/min
same,left intraventricular pressure,anesthetized rats; 15 min after administration,120.22 ± 12.98 mmHg
same,mean arterial pressure,anesthetized rats; 15 min after administration,66.21 ± 11.57 mmHg
same,change-rate of left intraventricular pressure MAX,anesthetized rats; 30 min after administration,4152.8 ± 901.5 mmHg/s
same,"change-rate of left intraventricular pressure, -MAX",anesthetized rats; 30 min after administration,−3416.6 ± 767.5 mm/Hg/s
same,contractive pressure,anesthetized rats; 30 min after administration,94.47 ± 17.17 mmHg
same,diastolic pressure,anesthetized rats; 30 min after administration,48.00 ± 9.98 mmHg
same,heart rate,anesthetized rats; 30 min after administration,322.02 ± 51.09 beat/min
same,left intraventricular pressure,anesthetized rats; 30 min after administration,116.59 ± 13.59 mmHg
same,mean arterial pressure,anesthetized rats; 30 min after administration,63.49 ± 11.93 mmHg
same,change-rate of left intraventricular pressure MAX,anesthetized rats; 60 min after administration,3919.4 ± 784.0 mmHg/s
same,contractive pressure,anesthetized rats; 60 min after administration,98.49 ± 22.31 mmHg
same,diastolic pressure,anesthetized rats; 60 min after administration,48.81 ± 11.47 mmHg
same,heart rate,anesthetized rats; 60 min after administration,317.91 ± 58.04 beat/min
same,left intraventricular pressure,anesthetized rats; 60 min after administration,115.68 ± 15.37 mmHg
same,mean arterial pressure,anesthetized rats; 60 min after administration,65.37 ± 14.57 mmHg
same,change-rate of left intraventricular pressure MAX,anesthetized rats; 90 min after administration,3759.0 ± 814.5 mmHg/s
same,"change-rate of left intraventricular pressure, -MAX",anesthetized rats; 90 min after administration,−3247.4 ± 773.2 mm/Hg/s
same,contractive pressure,anesthetized rats; 90 min after administration,99.15 ± 23.91 mmHg
same,diastolic pressure,anesthetized rats; 90 min after administration,49.38 ± 13.27 mmHg
same,heart rate,anesthetized rats; 90 min after administration,329.61 ± 55.70 beat/min
same,left intraventricular pressure,anesthetized rats; 90 min after administration,115.10 ± 16.60 mmHg
same,mean arterial pressure,anesthetized rats; 90 min after administration,65.97 ± 16.34 mmHg
same,change-rate of left intraventricular pressure MAX,anesthetized rats; 120 min after administration,4044.6 ± 844.9 mmHg/s
same,"change-rate of left intraventricular pressure, -MAX",anesthetized rats; 120 min after administration,−3452.2 ± 630.9 mm/Hg/s
same,contractive pressure,anesthetized rats; 120 min after administration,102.58 ± 27.01 mmHg
same,diastolic pressure,anesthetized rats; 120 min after administration,51.84 ± 13.93 mmHg
same,heart rate,anesthetized rats; 120 min after administration,328.05 ± 58.98 beat/min
same,left intraventricular pressure,anesthetized rats; 120 min after administration,118.39 ± 16.55 mmHg
same,mean arterial pressure,anesthetized rats; 120 min after administration,68.75 ± 17.93 mmHg
same,change-rate of left intraventricular pressure MAX,anesthetized rats; before administration,5455.9 ± 1418.1 mmHg/s
same,"change-rate of left intraventricular pressure, -MAX",anesthetized rats; before administration,−4215.6 ± 1058.0 mm/Hg/s
same,contractive pressure,anesthetized rats; before administration,137.10 ± 28.79 mmHg
same,diastolic pressure,anesthetized rats; before administration,75.39 ± 19.27 mmHg
same,heart rate,anesthetized rats; before administration,363.19 ± 46.67 beat/min
same,left intraventricular pressure,anesthetized rats; before administration,137.79 ± 18.96 mmHg
same,mean arterial pressure,anesthetized rats; before administration,95.96 ± 22.22 mmHg
same,dp/dt (in words),anesthetized rats; verapamil group (11.4 mg/kg),significantly reduced
same,effect on the heart rate (in words),anesthetized rats; verapamil group (11.4 mg/kg),significantly reduced
same,left intraventricular pressure (in words),anesthetized rats; verapamil group (11.4 mg/kg),significantly reduced
same,−dp/dt (in words),anesthetized rats; verapamil group (11.4 mg/kg),significantly reduced
same,"mean arterial pressure, systolic pressure and diastolic pressure (in words)","anesthetized rats; verapamil group (11.4 mg/kg), 5-120 min",significantly reduce
same,SOD,[5],126.16 ± 28.10 U/mL
